Measured values published in patent US7825146B2, “Sulfonamide derivative having isoxazole ring” (Shionogi & Co., Ltd., priority 2003, dated 2010).

How the values were obtained:
[1] = target: T1, MMP-12 (Homo sapiens, UniProt P39900); assay: Assay for inhibitory activities on MMPs (fluorogenic MOCAc peptide substrate): MMP-12; assay type: biochemical; settings: catalytic domain 100Phe-263Gly
T1 construct: In regard to MMP-12, catalytic domain(^100Phe˜^263Gly) was amplified with RT-PCR; His-tag; enterokinase digestion-site; made in house
T1 sequence (P39900 100-263): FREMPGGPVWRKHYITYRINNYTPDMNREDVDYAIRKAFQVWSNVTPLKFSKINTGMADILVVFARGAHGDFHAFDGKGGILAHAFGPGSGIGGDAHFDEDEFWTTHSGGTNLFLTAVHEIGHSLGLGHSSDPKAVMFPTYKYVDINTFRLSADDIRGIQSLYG
Description: In regard to MMP-12, catalytic domain(^100Phe˜^263Gly) was amplified with RT-PCR from Human Placenta Total RNA. This was cloned in Escherichia. coli expression vector pTrc99AHE inserted with His-tag sequence and enterokinase digestion-site, induced and expressed by IPTG (Isopropyl-β-D-thiogalactopyranoside) and expressed in a insoluble fraction. Isolation of MMP-12 from an insoluble fraction was carried out by dissolving in modifier (6M urea) by a usual method and purification with metal chelate chromatography (Ni Chelateing Sepharose). And then removing modifier (6M urea) with dialysis and refolding of the enzyme spontaneously gave activated MMP-12.
(§1) The enzymatic activity on MMPs was analyzed by the method described in “C. Graham Knight, Frances Willenbrock and Gillian Murphy: A novel coumarin-labelled peptide for sensitive continuous assays of the matrix metalloproteinases: FEBS LETT., 296, (1992), 263-266”. The substrate: MOCAc-Pro-Leu-Gly-Leu-A2Pr(DNP)-Ala-Arg-NH2 was purchased from Peptide Institute, Inc., Osaka, Japan. The measurement of the inhibitory activities (IC50) was carried out by the following four methods; • (A) Reaction with substrate, enzyme (MMPs) and inhibitor • (B) Reaction with substrate and inhibitor, without enzyme • (C) Reaction with substrate and enzyme (MMPs), without inhibitor • (D) Reaction with substrate only IC50 values were calculated by using the following formula and each fluorescence values of above four methods (A to D).
(§2) The value of inhibitory activity against MMP-2, MMP-8, MMP-9, MMP-12, and MMP-13 measured by above mentioned methods are shown in Table 36, 37, 38, 39, and 40 respectively.

[2] = target: T2, MMP-8 (Homo sapiens, UniProt P22894); assay: Assay for inhibitory activities on MMPs (fluorogenic MOCAc peptide substrate): MMP-8; assay type: biochemical; settings: catalytic domain 99Phe-262Gly
T2 construct: In regard to MMP-8, catalytic domain (^99Phe˜^262Gly) was amplified with PCR; His-tag; enterokinase digestion-site; made in house
T2 sequence (P22894 99-262): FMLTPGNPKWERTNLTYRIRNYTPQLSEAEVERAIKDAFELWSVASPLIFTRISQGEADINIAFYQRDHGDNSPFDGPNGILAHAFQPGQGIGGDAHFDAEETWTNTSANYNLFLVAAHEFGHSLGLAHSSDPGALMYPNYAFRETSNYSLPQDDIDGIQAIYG
Excerpt: In regard to MMP-8, catalytic domain (^99Phe˜^262Gly) was amplified with PCR using commercial available Human Bone Marrow cDNA. This was cloned in Escherichia. coli expression vector pTrc99AHE inserted with His-tag sequence and enterokinase digestion-site, induced and expressed by IPTG (Isdpropyl-β-D-thiogalactopyranoside) and expressed in a insoluble fraction (Thau F. Ho, M. Walid Qoronfleh, Robert C. Wahl, Trica A. Pulvino, Karen J. Vavra, Joe Falvo, Tracey M. Banks, Patricia G. Brake and Richard B. Ciccarelli: Gene expression, purification and characterization of recombinant human neutrophil collagenase. Gene 146, (1994) 297-301, Prepared by the a improved method of this material). Isolation of MMP-8 from an insoluble fraction was carried out by dissolving in modifier (6M urea) by a usual method and purification with metal chelate chromatography. And then removing modifier (6M urea) with dialysis and refolding of the enzyme spontaneously gave activated MMP-8.
as §1, §2

| IC50 [1] | IC50 [2] | SMILES |
| --- | --- | --- |
| 0.000967 µM | – | O=C(O)C[C@@H](NS(=O)(=O)c1ccc(-c2cc(-c3ccc(Cl)c(F)c3)on2)cc1)C(=O)O [Example C-117] |
| 0.000245 µM | – | Cc1ccc(-c2cc(-c3ccc(S(=O)(=O)N[C@@H](CC(C)C)C(=O)O)cc3)no2)cc1F [Example C-84] |
| – | 0.00416 µM | Cc1ccc(-c2cc(-c3ccc(S(=O)(=O)N[C@H](CC(C)C)C(=O)O)cc3)no2)s1 [Example C-74] |
| – | 0.00463 µM | CC(C)C[C@@H](NS(=O)(=O)c1ccc(-c2cc(-c3ccc(Cl)s3)on2)cc1)C(=O)O [Example C-78] |
| 0.000233 µM | – | CC(C)C[C@H](NS(=O)(=O)c1ccc(-c2cc(-c3ccc(Cl)c(F)c3)on2)cc1)C(=O)O [Example C-82] |
| 0.000781 µM | – | CCC(C)[C@H](NS(=O)(=O)c1ccc(-c2cc(-c3ccc(F)cc3)on2)cc1)C(=O)O (stereo partly drawn) [Example C-106] |
| 0.000676 µM | – | CCc1ccc(-c2cc(-c3ccc(S(=O)(=O)N[C@@H](CC(C)C)C(=O)O)cc3)no2)s1 [Example C-77] |
| 0.000409 µM | – | Cc1ccc(-c2cc(-c3ccc(S(=O)(=O)N[C@H](C(=O)O)C(C)C)cc3)no2)cc1 [Example C-9] |
| 0.00076 µM | – | CCc1ccc(-c2cc(-c3ccc(S(=O)(=O)N[C@H](Cc4ccccc4)C(=O)O)cc3)no2)cc1 [Example C-123] |
| 0.000525 µM | – | CCC(C)[C@H](NS(=O)(=O)c1ccc(-c2cc(-c3ccc(F)c(F)c3)on2)cc1)C(=O)O (stereo partly drawn) [Example C-108] |
| 0.000575 µM | – | CC(C)[C@@H](NS(=O)(=O)c1ccc(-c2cc(-c3ccc(Cl)c(Cl)c3)on2)cc1)C(=O)O [Example C-40] |
| 0.000289 µM | – | CCc1ccc(-c2cc(-c3ccc(S(=O)(=O)N[C@@H](CC(C)C)C(=O)O)cc3)no2)cc1 [Example C-56] |
| 0.000209 µM | – | CC(C)[C@H](NS(=O)(=O)c1ccc(-c2cc(-c3ccc(C(F)(F)F)cc3)on2)cc1)C(=O)O [Example C-28] |
| 0.000904 µM | – | COc1ccc(-c2cc(-c3ccc(S(=O)(=O)N[C@H](CC(=O)O)C(=O)O)cc3)no2)cc1F [Example C-118] |
| 0.000834 µM | – | CC(C)[C@@H](NS(=O)(=O)c1ccc(-c2cc(-c3ccc(F)c(F)c3)on2)cc1)C(=O)O [Example C-49] |
| 0.000256 µM | – | CCC(C)[C@H](NS(=O)(=O)c1ccc(-c2cc(-c3ccc(C)cc3)on2)cc1)C(=O)O (stereo partly drawn) [Example C-94] |
| 0.000205 µM | – | CC(C)[C@H](NS(=O)(=O)c1ccc(-c2cc(-c3ccc(Br)cc3)on2)cc1)C(=O)O [Example C-23] |
| 0.000203 µM | – | CC(C)C[C@H](NS(=O)(=O)c1ccc(-c2cc(-c3ccc(OC(F)(F)F)cc3)on2)cc1)C(=O)O [Example C-71] |
| 0.000251 µM | – | CC(C)C[C@H](NS(=O)(=O)c1ccc(-c2cc(-c3ccc(C(F)(F)F)cc3)on2)cc1)C(=O)O [Example C-73] |
| 0.000245 µM | – | Cc1ccc(-c2cc(-c3ccc(S(=O)(=O)N[C@@H](C(=O)O)C(C)C)cc3)no2)cc1F [Example C-38] |

| IC50 [1] | IC50 [2] | SMILES |
| --- | --- | --- |
| 0.000754 µM | – | CC(C)[C@H](NS(=O)(=O)c1ccc(-c2cc(-c3ccc(F)c(F)c3)on2)cc1)C(=O)O [Example C-50] |
| 0.00029 µM | – | CSc1ccc(-c2cc(-c3ccc(S(=O)(=O)N[C@@H](CC(C)C)C(=O)O)cc3)no2)cc1 [Example C-62] |
| 0.000295 µM | – | CC(C)C[C@H](NS(=O)(=O)c1ccc(-c2cc(-c3ccc(Cl)cc3)on2)cc1)C(=O)O [Example C-68] |
| – | 0.0023 µM | Cc1ccc(-c2cc(-c3ccc(S(=O)(=O)N[C@H](CC(=O)O)C(=O)O)cc3)no2)s1 [Example C-116] |
| 0.000216 µM | – | CCCc1ccc(-c2cc(-c3ccc(S(=O)(=O)N[C@@H](CC(C)C)C(=O)O)cc3)no2)cc1 [Example C-58] |
| 0.000547 µM | – | CCc1ccc(-c2cc(-c3ccc(S(=O)(=O)N[C@@H](C)C(=O)O)cc3)no2)cc1 [Example C-3] |
| – | 0.00111 µM | CCC(C)[C@H](NS(=O)(=O)c1ccc(-c2cc(-c3ccc(Cl)s3)on2)cc1)C(=O)O (stereo partly drawn) [Example C-100] |
| 0.000238 µM | – | Cc1ccc(-c2cc(-c3ccc(S(=O)(=O)N[C@H](C(=O)O)C(C)C)cc3)no2)cc1F [Example C-39] |
| 0.000343 µM | – | Cc1ccc(-c2cc(-c3ccc(S(=O)(=O)N[C@@H](CC(C)C)C(=O)O)cc3)no2)cc1 [Example C-54] |
| 0.000432 µM | – | COc1ccc(-c2cc(-c3ccc(S(=O)(=O)N[C@@H](CC(C)C)C(=O)O)cc3)no2)cc1 [Example C-64] |
| 0.000174 µM | – | CCC(C)[C@H](NS(=O)(=O)c1ccc(-c2cc(-c3ccc(C)c(F)c3)on2)cc1)C(=O)O (stereo partly drawn) [Example C-105] |
| 0.000336 µM | – | CC(C)[C@H](NS(=O)(=O)c1ccc(-c2cc(-c3ccc(Cl)cc3)on2)cc1)C(=O)O [Example C-21] |
| 0.000559 µM | – | Cc1ccc(-c2cc(-c3ccc(S(=O)(=O)N[C@@H](C(=O)O)C(C)C)cc3)no2)cc1 [Example C-8] |
| 0.000218 µM | – | CC(C)C[C@H](NS(=O)(=O)c1ccc(-c2cc(-c3ccc(Br)cc3)on2)cc1)C(=O)O [Example C-66] |
| 0.000951 µM | – | Cc1ccc(-c2cc(-c3ccc(S(=O)(=O)N[C@@H](C(=O)O)C(C)(C)C)cc3)no2)cc1 [Example C-109] |
| 0.000257 µM | – | CCC(C)[C@H](NS(=O)(=O)c1ccc(-c2cc(-c3ccc(Cl)cc3)on2)cc1)C(=O)O (stereo partly drawn) [Example C-107] |
| 0.000877 µM | – | Cc1ccc(-c2cc(-c3ccc(S(=O)(=O)N[C@H](Cc4ccccc4)C(=O)O)cc3)no2)cc1 [Example C-122] |
| 0.000899 µM | – | Cc1ccc(-c2cc(-c3ccc(S(=O)(=O)N[C@@H](C)C(=O)O)cc3)no2)cc1 [Example C-2] |
| 0.000177 µM | – | CCC(C)[C@H](NS(=O)(=O)c1ccc(-c2cc(-c3ccc(Br)cc3)on2)cc1)C(=O)O (stereo partly drawn) [Example C-103] |

The next lines start with the molecule.

| SMILES | IC50 [1] | IC50 [2] |
| --- | --- | --- |
| CC(C)[C@H](NS(=O)(=O)c1ccc(-c2cc(-c3ccc(Cl)c(F)c3)no2)cc1)C(=O)O [Example A-41] | 0.00047 µM | – |
| COc1ccc(-c2cc(-c3ccc(S(=O)(=O)N[C@H](C(=O)O)C(C)C)cc3)on2)cc1F [Example A-39] | 0.000708 µM | – |
| COc1ccc(-c2cc(-c3ccc(S(=O)(=O)N[C@@H](C(=O)O)C(C)C)cc3)on2)cc1F [Example A-38] | 0.000908 µM | – |
| CCC(C)[C@H](NS(=O)(=O)c1ccc(-c2cc(-c3ccc(Cl)c(F)c3)no2)cc1)C(=O)O (stereo partly drawn) [Example A-104] | 0.000379 µM | – |
| CCC(C)[C@H](NS(=O)(=O)c1ccc(-c2cc(-c3ccc(C(F)(F)F)cc3)no2)cc1)C(=O)O (stereo partly drawn) [Example A-102] | 0.000592 µM | – |
| Cc1ccc(-c2cc(-c3ccc(S(=O)(=O)N[C@@H](CC(C)C)C(=O)O)cc3)on2)cc1 [Example A-61] | 0.00081 µM | – |
| CC(C)C[C@H](NS(=O)(=O)c1ccc(-c2cc(-c3ccc(Cl)cc3)no2)cc1)C(=O)O [Example A-65] | 0.000492 µM | – |
| CC(C)[C@@H](NS(=O)(=O)c1ccc(-c2cc(-c3ccc(Br)cc3)no2)cc1)C(=O)O [Example A-24] | 0.000806 µM | – |
| CC(C)[C@H](NS(=O)(=O)c1ccc(-c2cc(-c3ccc(Cl)cc3)no2)cc1)C(=O)O [Example A-23] | 0.00086 µM | – |
| CC(C)C[C@H](NS(=O)(=O)c1ccc(-c2cc(-c3ccc(C(F)(F)F)cc3)no2)cc1)C(=O)O [Example A-63] | 0.000584 µM | – |
| CC(C)[C@H](NS(=O)(=O)c1ccc(-c2cc(-c3ccc(Br)cc3)no2)cc1)C(=O)O [Example A-25] | 0.000518 µM | – |
| CC(C)[C@H](NS(=O)(=O)c1ccc(-c2cc(-c3ccc(C(F)(F)F)cc3)no2)cc1)C(=O)O [Example A-21] | 0.000608 µM | – |
| CC(C)[C@@H](NS(=O)(=O)c1ccc(-c2cc(-c3ccc(C(F)(F)F)cc3)no2)cc1)C(=O)O [Example A-20] | 0.000723 µM | – |
| CC(C)C[C@H](NS(=O)(=O)c1ccc(-c2cc(-c3ccc(F)c(F)c3)no2)cc1)C(=O)O [Example A-84] | 0.00069 µM | – |
| CC(C)C[C@H](NS(=O)(=O)c1ccc(-c2cc(-c3ccc(Br)cc3)no2)cc1)C(=O)O [Example A-66] | 0.00043 µM | – |
| CC(C)C[C@H](NS(=O)(=O)c1ccc(-c2cc(-c3ccc(Cl)c(F)c3)no2)cc1)C(=O)O [Example A-81] | 0.000357 µM | – |
| C[C@H](NS(=O)(=O)c1ccc(-c2cc(-c3ccc(OC(F)(F)F)cc3)no2)cc1)C(=O)O [Example A-6] | 0.000889 µM | – |
| CC(C)[C@@H](NS(=O)(=O)c1ccc(-c2cc(-c3ccc(Cl)c(F)c3)no2)cc1)C(=O)O [Example A-40] | 0.000861 µM | – |
